Measured values published in patent US20230416329A1, “A PEPTIDE WITH DISULFIDE BONDS AND INHIBITORY ACTIVITY AGAINST SERINE PROTEASES, DERIVED HYBRID PEPTIDES THEREOF, AND USES THEREOF” (INSTITUTE OF MATERIA MEDICA , CHINESE ACADEMY OF MEDICAL …, priority 2020, published 2023).
Bridge positions count the residues as written; N and C are the ends. Peptide text beside a SMILES is read from it.

Molecular target: α-chymotrypsin (Bos taurus, UniProt P00766)
Experiment: Chymotrypsin inhibitory activity of peptides (AAPFpNA hydrolysis; IC50, Ki, residual activity)
Assay type: biochemical
Conditions: for Ki: Ki=IC50/(1+S/Km), Km 0.38 mM; for IC50: chymotrypsin 30 nM, AAPFpNA 0.5 mM
Procedure: The inhibition constants of various synthetic active peptide inhibitors (molecular scaffolds) against seine proteases were measured. The substrates N-succinyl-Ala-Ala-Pro-Phe-p-nitroaniline (AAPFpNA), Nα—Benzoyl-L-arginine-4-nitroaniline hydrochloride (BApNA) and N-succinyl-[…] (AAApNA) are used in competitive binding reaction to determine the inhibitory activities against α-chymotrypsin, bovine trypsin, and porcine pancreatic elastase, respectively. Experiments for α-chymotrypsin and bovine trypsin inhibition were measured in 20 mM CaCl2, 50 mM Tris-HCl buffer (pH 7.8), and that for porcine elastase inhibition was measured in 50 mM Tris-HCl buffer (pH 8.0). The concentration of the peptide was measured using optical density (OD) at 280 nm. The Michaelis constant (Km) of the enzyme hydrolysis substrate is calculated from the initial rate of substrate hydrolysis at 405 nm. The absorbance value of the substrate was measured at 405 nm after complete hydrolysis. All data were processed using nonlinear regression.
• (1) Added a total 190 μL of reaction buffer (20 mM CaCl2, 50 mM Tris-HCl (pH 7.8)) into the 96 well plate, followed by preheating at 37° C. for 15 min. Then added 2 μL of different concentrations of substrates (p-Nitroanilide, pNA, 0.5% in DMSO), and mixed by centrifugation at 500 rpm for 1 min. Finally, the plate was incubated at 37° C. for 20 min, and the absorbance value at 405 nm was measured. In the 200 μL of reaction system, the final concentrations of pNA were 0, 0.025, 0.05, 0.075, 0.1, 0.125, 0.15, 0.25, and 0.3 mM, respectively. Make three repetitions for each concentration and plot the OD405 m value with pNA concentration to obtain the standard curve. • (2) Added a total 190 μL of reaction buffer (20 mM CaCl2, 50 mM Tris-HCl (pH 7.8)) and 8 μL of 0.75 μM chymotrypsin into the 96 well plate, followed by preheating at 37° C. for 5 min. Then added 2 μL of different concentrations of substrates (AAPFpNA, dissolved in DMSO), and mixed by centrifugation at 500 rpm for 1 min. Finally, the plate was incubated at 37° C. for 20 min, and the absorbance value at 405 nm was measured. In the 200 μL of reaction system, the final concentrations of AAPFpNA were 0, 0.125, 0.25, 0.285, 0.33, 0.4, and 0.5 mM, respectively. Make three repetitions for each concentration and plot the OD405 nm value with time to obtain the corresponding curve. Divide the slope of the curve by the slope of the standard curve and the enzyme concentration to obtain the initial velocity V0 (mM/(min*mM protein). Plot the initial velocity V0 with the concentration of substrate AAPFpNA using Prism software, and the Michaelis constant Km value of chymotrypsin hydrolyzing AAPFpNA was obtained.
• (1) Added a total 190 μL of reaction buffer (20 mM CaCl2, 50 mM Tris-HCl (pH 7.8)), different concentrations of anti-chymorypsin peptides (CHs) into the pre-cold 96 well plate, followed by preheating at 37° C. for 5 min and centrifugated at 500 rpm for 1 min and allowed to stand for 4 minutes. Then added 8 μL of 750 nM chymotrypsin and incubated at 37° C. for 10 min, and centrifugated at 500 rpm for 1 min and allowed to stand for 9 minutes. Finally, added 2 μL of 50 mM AAPFpNA, and mixed by centrifugation at 500 rpm for 1 min. The plate was incubated at 37° C. for 90 min, and the absorbance value at 405 nm was measured. Three repetitions were made, and only reaction buffer and substrate were added in the blank control as the minimum absorption value (Min OD405 nm); Only reaction buffer, enzyme and substrate were added in the negative control as the maximum absorption value (Max OD405). • (2) In the 200 μL of reaction system, the final concentrations of chymotrypsin and AAPFpNA were 30 nM and 0.5 mM, respectively. • (3) Data statistics
Residual activity of enzyme (%)=(1−(Max OD405 nm−Sample OD405 nm)/(Max OD405 nm−Min OD405 nm))*100 […]

SMILES | Ki [µM] | IC50 [µM] | inhibitory activity against chymotrypsin (in words) | further results
CC[C@H](C)[C@@H]1NC(=O)[C@H](CO)NC(=O)[C@H](Cc2ccc(O)cc2)NC(=O)[C@H]([C@@H](C)O)NC(=O)[C@H](C)NC(=O)[C@H](CO)NC(=O)CNC(=O)[C@@H](N)CSSC[C@@H](C(=O)N[C@@H](Cc2ccc(O)cc2)C(=O)NCC(=O)O)NC(=O)[C@H](CCC(N)=O)NC(=O)[C@@H]2CCCN2C(=O)[C@@H]2CCCN2C1=O [CH15] (H-CGSATYSIPPQCYG-OH; disulfide 1-12; N-terminus and C-terminus assumed) | 1.99 | 4.6 |  | 
CC[C@H](C)[C@@H]1NC(=O)[C@H](CO)NC(=O)[C@H](Cc2ccc(O)cc2)NC(=O)[C@H]([C@@H](C)O)NC(=O)[C@H](C)NC(=O)[C@H](CO)NC(=O)[C@@H](N)CSSC[C@@H](C(=O)N[C@@H](Cc2ccc(O)cc2)C(=O)NCC(=O)O)NC(=O)[C@H](CCC(N)=O)NC(=O)[C@@H]2CCCN2C(=O)[C@@H]2CCCN2C1=O [CH16] (H-CSATYSIPPQCYG-OH; disulfide 1-11; N-terminus and C-terminus assumed) |  | > 50 |  | 
CC[C@H](C)[C@@H]1NC(=O)[C@H](CO)NC(=O)[C@H](CC(C)C)NC(=O)[C@H]([C@@H](C)O)NC(=O)[C@@H](NC(=O)[C@@H](N)Cc2ccccc2)CSSC[C@@H](C(=O)N[C@@H](Cc2ccc(O)cc2)C(=O)NCC(=O)O)NC(=O)[C@H](CCC(N)=O)NC(=O)[C@@H]2CCCN2C(=O)[C@@H]2CCCN2C1=O [CH19] (H-FCTLSIPPQCYG-OH; disulfide 2-10; N-terminus and C-terminus assumed) | 4.87 | 11.3 |  | 
CC[C@H](C)[C@@H]1NC(=O)[C@@H]2CCCN2C(=O)[C@@H]2CCCN2C(=O)[C@H]([C@@H](C)CC)NC(=O)[C@H](CO)NC(=O)[C@H](Cc2ccc(O)cc2)NC(=O)[C@H](CC(C)C)NC(=O)[C@@H](NC(=O)[C@H](CCCCN)NC(=O)CN)CSSC[C@@H](C(=O)N[C@@H](Cc2ccccc2)C(=O)N2CCC[C@H]2C(=O)N[C@@H](CC(N)=O)C(=O)O)NC1=O [CH20] (H-GKCLYSIPPICFPN-OH; disulfide 3-11; N-terminus and C-terminus assumed) | 7.1 | 16.4 |  | 
CC[C@H](C)[C@@H]1NC(=O)[C@H](CO)NC(=O)[C@H](Cc2ccc(O)cc2)NC(=O)[C@H]([C@@H](C)O)NC(=O)[C@H](C)NC(=O)[C@H](CC(N)=O)NC(=O)CNC(=O)[C@@H](N)CSSC[C@@H](C(=O)N[C@@H](Cc2ccc(O)cc2)C(=O)NCC(=O)O)NC(=O)[C@H](CCC(N)=O)NC(=O)[C@@H]2CCCN2C(=O)[C@@H]2CCCN2C1=O [CH21] (H-CGNATYSIPPQCYG-OH; disulfide 1-12; N-terminus and C-terminus assumed) |  | > 50 |  | 
CC[C@H](C)[C@@H]1NC(=O)[C@H](CO)NC(=O)[C@H](Cc2ccc(O)cc2)NC(=O)[C@H]([C@@H](C)O)NC(=O)[C@H](C)NC(=O)[C@H]([C@@H](C)O)NC(=O)CNC(=O)[C@@H](N)CSSC[C@@H](C(=O)N[C@@H](Cc2ccc(O)cc2)C(=O)NCC(=O)O)NC(=O)[C@H](CCC(N)=O)NC(=O)[C@@H]2CCCN2C(=O)[C@@H]2CCCN2C1=O [CH22] (H-CGTATYSIPPQCYG-OH; disulfide 1-12; N-terminus and C-terminus assumed) |  | > 50 |  | 
CC[C@H](C)[C@@H]1NC(=O)[C@H](CO)NC(=O)[C@H](Cc2ccc(O)cc2)NC(=O)[C@H]([C@@H](C)O)NC(=O)[C@H](C)NC(=O)[C@H](CO)NC(=O)CNC(=O)[C@@H](N)CSSC[C@@H](C(=O)N[C@H](C(=O)NCC(=O)O)C(C)C)NC(=O)[C@H](CCC(N)=O)NC(=O)[C@H](C)NC(=O)[C@@H]2CCCN2C1=O [CH23] (H-CGSATYSIPAQCVG-OH; disulfide 1-12; N-terminus and C-terminus assumed) | 1.86 | 4.31 | good inhibitory activity | 
CC[C@H](C)[C@@H]1NC(=O)[C@H](CO)NC(=O)[C@H](Cc2ccc(O)cc2)NC(=O)[C@H]([C@@H](C)O)NC(=O)[C@H](C)NC(=O)[C@H](CO)NC(=O)CNC(=O)[C@@H](N)CSSC[C@@H](C(=O)N[C@@H](Cc2ccccc2)C(=O)NCC(=O)O)NC(=O)[C@H](CCCCN)NC(=O)[C@H](C)NC(=O)[C@@H]2CCCN2C1=O [CH24] (H-CGSATYSIPAKCFG-OH; disulfide 1-12; N-terminus and C-terminus assumed) | 2.65 | 6.14 | good inhibitory activity | 
CC[C@H](C)[C@@H]1NC(=O)[C@@H]2CCCN2C(=O)[C@@H]2CCCN2C(=O)[C@H]([C@@H](C)CC)NC(=O)[C@H](CO)NC(=O)[C@H](Cc2ccccc2)NC(=O)[C@H]([C@@H](C)O)NC(=O)[C@@H](NC(=O)[C@@H](NC(=O)CN)[C@@H](C)O)CSSC[C@@H](C(=O)N[C@@H](CC(N)=O)C(=O)N2CCC[C@H]2C(=O)N[C@@H](CC(N)=O)C(=O)O)NC1=O [CH25] (H-GTCTFSIPPICNPN-OH; disulfide 3-11) | 0.12 | 0.28 |  | 
CC[C@H](C)[C@@H]1NC(=O)[C@@H]2CCCN2C(=O)[C@@H]2CCCN2C(=O)[C@H]([C@@H](C)CC)NC(=O)[C@H](CO)NC(=O)[C@H](Cc2ccccc2)NC(=O)[C@H]([C@@H](C)O)NC(=O)[C@@H](NC(=O)[C@@H](NC(=O)CN)[C@@H](C)O)CSSC[C@@H](C(=O)N[C@@H](CC(N)=O)C(=O)O)NC1=O [CH26] (H-GTCTFSIPPICN-OH; disulfide 3-11; C-terminus assumed) |  |  | good inhibitory activity | 
CC[C@H](C)[C@@H]1NC(=O)[C@@H]2CCCN2C(=O)[C@@H]2CCCN2C(=O)[C@H]([C@@H](C)CC)NC(=O)[C@H](CO)NC(=O)[C@H](Cc2ccccc2)NC(=O)[C@H]([C@@H](C)O)NC(=O)[C@H](C)NC(=O)[C@H]([C@@H](C)O)NC(=O)CNC(=O)[C@@H](N)CSSC[C@@H](C(=O)N[C@@H](CC(N)=O)C(=O)O)NC1=O [CH27] (H-CGTATFSIPPICN-OH; disulfide 1-12; N-terminus and C-terminus assumed) | 2.88 | 6.66 | certain inhibitory activity | Residual activity of chymotrypsin (peptide 0.01 μM): 102.7 ± 2.4%; Residual activity of chymotrypsin (peptide 0.1 μM): 105.3 ± 0.9%; Residual activity of chymotrypsin (peptide 1 μM): 106.0 ± 0.7%; Residual activity of chymotrypsin (peptide 3 μM): 86.8 ± 1.5%; Residual activity of chymotrypsin (peptide 6 μM): 64.9 ± 3.1%; Residual activity of chymotrypsin (peptide 10 μM): 26.2 ± 2.4%; Residual activity of chymotrypsin (peptide 25 μM): 15.5 ± 0.3%; Residual activity of chymotrypsin (peptide 100 μM): 2.9 ± 0.3%; Residual activity of chymotrypsin (peptide 300 μM): 1.2 ± 0.0%; Residual activity of chymotrypsin (peptide 1000 μM): 0.7 ± 0.1%
CC[C@H](C)[C@@H]1NC(=O)[C@H](Cc2ccc(O)cc2)NC(=O)[C@H](C)NC(=O)[C@H](CCSC)NC(=O)[C@H](C)NC(=O)[C@H](CCC(=O)O)NC(=O)CNC(=O)[C@@H]2CCCN2C(=O)[C@@H](N)CSSC[C@@H](C(=O)N[C@@H](Cc2ccccc2)C(=O)O)NC(=O)[C@H](CO)NC(=O)[C@H](CCCNC(=N)N)NC1=O [CH28] (H-CPGEAMAYIRSCF-OH; disulfide 1-12; N-terminus and C-terminus assumed) |  | > 50 |  | 
CC[C@H](C)[C@@H]1NC(=O)[C@H](CO)NC(=O)[C@H](Cc2ccc(O)cc2)NC(=O)[C@H]([C@@H](C)O)NC(=O)[C@H](C)NC(=O)[C@H](CO)NC(=O)CNC(=O)CNC(=O)[C@@H](N)CSSC[C@@H](C(=O)N[C@@H](Cc2ccc(O)cc2)C(=O)O)NC(=O)[C@H](CCC(N)=O)NC(=O)[C@@H]2CCCN2C(=O)[C@@H]2CCCN2C1=O [CH29] (H-CGGSATYSIPPQCY-OH; disulfide 1-13; N-terminus and C-terminus assumed) |  | > 50 |  | 
